Data reported in patent US20040101544A1, “Method for detoxifying a carbohydrate containing solution” (priority 2000, published 2004).

Assays:
[1] = system: mouse fibroblasts cells L-929; details: alone or in mixtures at the concentrations found in PD fluids; cited from earlier work
[2] = Biological effects of 3,4-dideoxy-glucosone-3-ene (test not specified)
[3] = system: mouse fibroblasts cells L-929; test: In vitro assay for cytotoxicity: inhibition of cell growth (ICG); assay type: cell-based
Procedure: Carbohydrate containing medical solutions used for peritoneal dialysis were mixed with 1 part of a cell growth medium and 10% (volume/volume) fetal calf serum was added (Wieslander et al., 1991, Kidney Int. 40:77-79). The basal cytotoxicity of the medical solution used for peritoneal dialysis was determined on mouse fibroblasts cells L-929 (CCL-1; ATTC, Rockville, Md., USA) as described earlier (Wieslander et al. 1993, Advances in Peritoneal Dialys, 9:31-35) and expressed as inhibition of cell growth (ICG).
Mouse fibroblast cells (L-929) were grown and incubated according to Järkelid et al., 2000, ATLA 28, 415-425. Inhibition of cell growth was determined for a 4% PD fluid with the following composition
Additionally dose response curves were made in MEM (Minimal Essential Medium).
The results from incubation of L-929 cells with synthetic 3,4-dideoxy-glucosone-3-ene added in MEM are presented in table 1 below showing the values plotted in FIG. 5. The 4% PD solution was autoclaved while the PD fluid was sterile filtered. The PD solutions were tested twice (% ICG1 and % ICG2) and the mean ICG was calculated.

Compound: O=CC(=O)C[C@H](O)[C@H](O)CO [3-deoxyglucosone]
- toxicity in the L-929 system [1]: None of these five listed compounds show toxicity

Compound: C=O [formaldehyde]
- toxicity in the L-929 system [1]: None of these five listed compounds show toxicity

Compound: CC=O [acetaldehyde]
- toxicity in the L-929 system [1]: None of these five listed compounds show toxicity

Compound: 3,4-dideoxy-glucosone-3-ene [3,4-DGE]
- concentration below which no biological effects seem to be present [2]: < 2 μM
- % ICG1 ([3]; 5 μM 3,4-DGE in MEM): 24%
- % ICG2 ([3]; 5 μM 3,4-DGE in MEM): 12%
- % ICG3 ([3]; 5 μM 3,4-DGE in MEM): 31%
- mean % ICG ([3]; 5 μM 3,4-DGE in MEM): 21,5%
- % ICG1 ([3]; 15 μM 3,4-DGE in MEM): 47%
- % ICG2 ([3]; 15 μM 3,4-DGE in MEM): 49%
- % ICG3 ([3]; 15 μM 3,4-DGE in MEM): 44%
- mean % ICG ([3]; 15 μM 3,4-DGE in MEM): 46,5%
- % ICG1 ([3]; 52 μM 3,4-DGE in MEM): 92%
- % ICG2 ([3]; 52 μM 3,4-DGE in MEM): 80%
- % ICG3 ([3]; 52 μM 3,4-DGE in MEM): 88%
- mean % ICG ([3]; 52 μM 3,4-DGE in MEM): 84%
- % ICG2 ([3]; 2,5 μM 3,4-DGE in MEM): 5%
- % ICG3 ([3]; 2,5 μM 3,4-DGE in MEM): 20%
- mean % ICG ([3]; 2,5 μM 3,4-DGE in MEM): 12,5%
- % ICG1 ([3]; 10,4 μM 3,4-DGE in MEM): 36%
- % ICG2 ([3]; 10,4 μM 3,4-DGE in MEM): 51%
- % ICG3 ([3]; 10,4 μM 3,4-DGE in MEM): 42%
- mean % ICG ([3]; 10,4 μM 3,4-DGE in MEM): 46,5%
- % ICG1 ([3]; 24,3 μM 3,4-DGE in MEM): 63%
- % ICG2 ([3]; 24,3 μM 3,4-DGE in MEM): 65%
- % ICG3 ([3]; 24,3 μM 3,4-DGE in MEM): 58%
- mean % ICG ([3]; 24,3 μM 3,4-DGE in MEM): 61,5%
- EC50 ([3]; dose response curves in MEM, L-929 cells): 16 µM
- toxicity in cytotoxicity test ([3]; fibroblast cells): toxic to fibroblast cells

Compound: O=CC=O [glyoxal]
- toxicity in the L-929 system [1]: None of these five listed compounds show toxicity
